According to PubChem BioAssay (NCI):
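At the GI50, growth is halved. TGI: concentration producing complete growth inhibition.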

Experiments:
Assay in all cases: NCI anticancer screen, dose series, 384-well format
786-0 renal = test system: 786-0 renal
A549 NSCLC = test system: A549 NSCLC
BT-549 breast = test system: BT-549 breast
CAKI-1 renal = test system: CAKI-1 renal
CCRF-CEM leukemia = test system: CCRF-CEM leukemia
COLO 205 colon = test system: COLO 205 colon
DU-145 prostate = test system: DU-145 prostate
EKVX NSCLC = test system: EKVX NSCLC
HCT-116 colon = test system: HCT-116 colon
HL-60(TB) leukemia = test system: HL-60(TB) leukemia
HOP-62 NSCLC = test system: HOP-62 NSCLC
HOP-92 NSCLC = test system: HOP-92 NSCLC
HT29 colon = test system: HT29 colon
IGROV1 ovarian = test system: IGROV1 ovarian
K-562 leukemia = test system: K-562 leukemia
KM12 colon = test system: KM12 colon
LOX IMVI melanoma = test system: LOX IMVI melanoma
M14 melanoma = test system: M14 melanoma
MALME-3M melanoma = test system: MALME-3M melanoma
MDA-MB-435 melanoma = test system: MDA-MB-435 melanoma
MDA-MB-468 breast = test system: MDA-MB-468 breast
MOLT-4 leukemia = test system: MOLT-4 leukemia
NCI-H226 lung = test system: NCI-H226 lung
NCI-H23 lung = test system: NCI-H23 lung
NCI-H322M lung = test system: NCI-H322M lung
NCI-H460 NSCLC = test system: NCI-H460 NSCLC
NCI-H522 lung = test system: NCI-H522 lung
NCI/ADR-RES ovarian = test system: NCI/ADR-RES ovarian
OVCAR-3 ovarian = test system: OVCAR-3 ovarian
OVCAR-4 ovarian = test system: OVCAR-4 ovarian
OVCAR-5 ovarian = test system: OVCAR-5 ovarian
PC-3 prostate = test system: PC-3 prostate
RPMI-8226 leukemia = test system: RPMI-8226 leukemia
RXF 393 renal = test system: RXF 393 renal
SF-268 CNS = test system: SF-268 CNS
SF-295 CNS = test system: SF-295 CNS
SF-539 CNS = test system: SF-539 CNS
SK-MEL-2 melanoma = test system: SK-MEL-2 melanoma
SK-OV-3 ovarian = test system: SK-OV-3 ovarian
SNB-75 CNS = test system: SNB-75 CNS
SR leukemia = test system: SR leukemia
T-47D breast = test system: T-47D breast
TK-10 renal = test system: TK-10 renal
U251 glioblastoma = test system: U251 glioblastoma
UACC-257 melanoma = test system: UACC-257 melanoma
UACC-62 melanoma = test system: UACC-62 melanoma
UO-31 renal = test system: UO-31 renal

COC(=O)c1ccc2c(C(=Nc3ccc(N(C)C(=O)CN4CCN(C)CC4)cc3)c3ccccc3)c(O)[nH]c2c1
GI50 ([…]-0 renal): 1400 nM
TGI (786-0 renal): 2790 nM
GI50 (A549 NSCLC): 1740 nM
TGI (A549 NSCLC): 3.32 µM
GI50 (BT-549 breast): 1490 nM
TGI (BT-549 breast): 2830 nM
GI50 (CAKI-1 renal): 1370 nM
TGI (CAKI-1 renal): 2810 nM
GI50 (CCRF-CEM leukemia): 1710 nM
TGI (CCRF-CEM leukemia): 3.09 µM
GI50 (COLO 205 colon): 1750 nM
TGI (COLO 205 colon): 3.14 µM
GI50 (DU-145 prostate): 1790 nM
TGI (DU-145 prostate): 3.34 µM
GI50 (EKVX NSCLC): 2000 nM
TGI (EKVX NSCLC): 3.65 µM
GI50 (HCT-116 colon): 1400 nM
TGI (HCT-116 colon): 2720 nM
GI50 (HL-60(TB) leukemia): 2040 nM
TGI (HL-60(TB) leukemia): 3.47 µM
GI50 (HOP-62 NSCLC): 1610 nM
TGI (HOP-62 NSCLC): 3.24 µM
GI50 (HOP-92 NSCLC): 950 nM
TGI (HOP-92 NSCLC): 2600 nM
GI50 (HT29 colon): 1230 nM
TGI (HT29 colon): 2510 nM
GI50 (IGROV1 ovarian): 427 nM
TGI (IGROV1 ovarian): 4.47 µM
GI50 (K-562 leukemia): 137 nM
TGI (K-562 leukemia): 286 nM
GI50 (KM12 colon): 47.5 nM
TGI (KM12 colon): 1330 nM
GI50 (LOX IMVI melanoma): 2230 nM
TGI (LOX IMVI melanoma): 3.69 µM
GI50 (M14 melanoma): 1870 nM
TGI (M14 melanoma): 3.29 µM
GI50 (MALME-3M melanoma): 1460 nM
TGI (MALME-3M melanoma): 2780 nM
GI50 (MDA-MB-435 melanoma): 1860 nM
TGI (MDA-MB-435 melanoma): 3.33 µM
GI50 (MDA-MB-468 breast): 1670 nM
TGI (MDA-MB-468 breast): 3.08 µM
GI50 (MOLT-4 leukemia): 730 nM
TGI (MOLT-4 leukemia): 2090 nM
GI50 (NCI-H226 lung): 812 nM
TGI (NCI-H226 lung): 2190 nM
GI50 (NCI-H23 lung): 1790 nM
TGI (NCI-H23 lung): 5.17 µM
GI50 (NCI-H322M lung): 1410 nM
TGI (NCI-H322M lung): 3.36 µM
GI50 (NCI-H460 NSCLC): 1870 nM
TGI (NCI-H460 NSCLC): 3.3 µM
GI50 (NCI-H522 lung): 750 nM
TGI (NCI-H522 lung): 2040 nM
GI50 (NCI/ADR-RES ovarian): 14.6 µM
TGI (NCI/ADR-RES ovarian): > 100 µM
GI50 (OVCAR-3 ovarian): 1780 nM
TGI (OVCAR-3 ovarian): 3.26 µM
GI50 (OVCAR-4 ovarian): 1440 nM
TGI (OVCAR-4 ovarian): 2870 nM
GI50 (OVCAR-5 ovarian): 1300 nM
TGI (OVCAR-5 ovarian): 2690 nM
GI50 (PC-3 prostate): 2660 nM
TGI (PC-3 prostate): 10.3 µM
GI50 (RPMI-8226 leukemia): 1340 nM
TGI (RPMI-8226 leukemia): 2620 nM
GI50 (RXF 393 renal): 1110 nM
TGI (RXF 393 renal): 2580 nM
GI50 (SF-268 CNS): 1560 nM
TGI (SF-268 CNS): 3.1 µM
GI50 (SF-295 CNS): 1830 nM
TGI (SF-295 CNS): 3.25 µM
GI50 (SF-539 CNS): 545 nM
TGI (SF-539 CNS): 1910 nM
GI50 (SK-MEL-2 melanoma): 1720 nM
TGI (SK-MEL-2 melanoma): 3.12 µM
GI50 (SK-OV-3 ovarian): 1340 nM
TGI (SK-OV-3 ovarian): 2780 nM
GI50 (SNB-75 CNS): 468 nM
TGI (SNB-75 CNS): 1510 nM
GI50 (SR leukemia): 734 nM
TGI (SR leukemia): 2020 nM
GI50 (T-47D breast): 1370 nM
TGI (T-47D breast): 2720 nM
GI50 (TK-10 renal): 1830 nM
TGI (TK-10 renal): 3.82 µM
GI50 (U251 glioblastoma): 1460 nM
TGI (U251 glioblastoma): 2860 nM
GI50 (UACC-257 melanoma): 1330 nM
TGI (UACC-257 melanoma): 2610 nM
GI50 (UACC-62 melanoma): 1900 nM
TGI (UACC-62 melanoma): 3.32 µM
GI50 (UO-31 renal): 1400 nM
TGI (UO-31 renal): 2930 nM
